According to patent publication US20240164376A1, “SYNERGISTIC PLANT GROWTH STIMULANT COMPOSITIONS OF POTASSIUM MONO/DI-FORMATE WITH NITROGENOUS COMPOUNDS” (FERTIS INDIA PVT LTD, priority 2021, published 2024):

system: paddy grains; assay: Protein content in the paddy grains; assay type: in vivo

| SMILES | % Of Protein |
| --- | --- |
| CNC(=O)NC [Dimethyl urea] | 0.0081% |
| O=C(Nc1ccccc1)Nc1ccccc1 [Diphenyl urea] | 0.0089% |
| NC(=O)N(C=O)C=O [N,Ndiformyl urea (NN-DFU), N,Ndiformyl urea] | 0.0112% |
| O=CO.O=C[O-].[K+] [Potassium diformate] | 0.0093% |
| O=C[O-].[K+] [Potassium formate] | 0.0091% |
| NC(N)=O [Urea] | 0.0063% |
